Experimental findings from patent US20040152739A1, “Acyclic pyrazole compounds for the inhibition of mitogen activated protein kinase-activated protein kinase-2” (priority 2002, published 2004) are described below.

Where a name gives a salt, the structure may show the parent alone.

For the assay, the target named is MK-2 (Homo sapiens, UniProt P49137). The assay is described as follows: Determination of MK-2 IC50 (anion exchange resin capture assay, HSP-peptide phosphorylation). In kind it is biochemical. Particulars: read-out: MK-2 Avg. IC50.
Sequence of MK-2 (P49137 whole entry, species assumed): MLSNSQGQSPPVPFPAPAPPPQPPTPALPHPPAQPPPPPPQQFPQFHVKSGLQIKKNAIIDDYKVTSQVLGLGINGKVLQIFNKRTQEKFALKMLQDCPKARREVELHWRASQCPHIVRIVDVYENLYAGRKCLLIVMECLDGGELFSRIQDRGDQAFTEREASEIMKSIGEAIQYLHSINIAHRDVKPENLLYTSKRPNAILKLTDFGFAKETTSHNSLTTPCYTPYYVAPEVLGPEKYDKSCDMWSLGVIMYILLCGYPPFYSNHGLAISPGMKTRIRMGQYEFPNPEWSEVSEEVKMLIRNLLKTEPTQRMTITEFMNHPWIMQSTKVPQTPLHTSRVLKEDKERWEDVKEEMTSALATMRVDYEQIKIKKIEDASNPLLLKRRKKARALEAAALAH
Method: The phosphorylation of HSP-peptide ([sequence]) by MAPKAPK2 was measured using an anion exchange resin capture assay method. […] The reaction was terminated and [γ^33P]ATP was removed from solution by the addition of 150 μl of AG 1×8 ion exchange resin in 900 mM sodium formate pH 3.0. A 50 μl aliquot of head volume was removed from the quenched reaction mixture and added to a 96-well plate, 150 μl of Microscint-40 (Packard) was added and the amount of phosphorylated-peptide was determined. Allow the Microscint to sit in the plates for 60 minutes prior to counting.
Compounds are evaluated as potential inhibitors of the MK2 kinase by measuring their effects on MK2 phosphorylation of the peptide substrate. Compounds may be screened initially at two concentrations prior to determination of IC50 values. Screening results are expressed as percent inhibition at the concentrations of compound tested. For IC50 value determinations, compounds are tested at six concentrations in ten-fold serial dilutions with each concentration tested in triplicate. Results are expressed as IC50 values in micromolar. The assay is performed at a final concentration of 2% DMSO.
Compounds are evaluated as potential inhibitors of the MK-2 kinase by measuring their effects on MK-2 phosphorylation of the peptide substrate. Compounds may be screened initially at two concentrations prior to determination of IC50 values. Screening results are expressed as percent inhibition at the concentrations of compound tested. For IC50 value determinations, compounds are tested at six concentrations in ten-fold serial dilutions with each concentration tested in triplicate. Results are expressed as IC50 values in micromolar. The assay is performed at a final concentration of 2% DMSO.
As usually defined, the IC50 is the concentration that gives 50% inhibition. As for `O=C1NCCn2nc(-c3ccnc(-c4ccc5c(c4)CNCC5)c3)cc21` [Example 82, trifluoroacetate], the IC50 was found to be 2.08 µM. To `CS(=O)(=O)c1cccc(-c2cc(-c3cc4n(n3)CCNC4=O)ccn2)c1` [Example 83, trifluoroacetate] belongs 2.1 µM. As to `O=C1NCCn2nc(-c3ccnc(-c4cccc(OCCN5CCNCC5)c4)c3)cc21` [Example 84], the IC50 was found to be 2.13 µM. As for `CS(=O)(=O)Nc1cccc(-c2cc(-c3cc4n(n3)CCNC4=O)ccn2)c1` [Example 85, dihydrochloride], the IC50 turned out to be 2.29 µM. As for `CN(C)c1ncnc2ccc(-c3cc(-c4cc5n(n4)CCNC5=O)ccn3)cc12` [Example 86], the IC50 came to 2.4 µM. For `CN(C)CCOc1cccc(-c2cc(-c3cc4n(n3)CCNC4=O)ccn2)c1` [Example 87], the IC50 was 2.4 µM. As for `O=C1NCCn2nc(-c3ccncc3)cc21` [Example 88], the IC50 was determined as 2.6 µM. To `O=C1NCCn2nc(-c3ccnc(-c4ccc(F)cc4F)c3)cc21` [Example 89, dihydrochloride] belongs 2.62 µM. For the molecule `Cc1cn(-c2cc(-c3cc4n(n3)CCCNC4=O)ccn2)cn1` [Example 90], the IC50 was determined as 2.76 µM.

For the molecule `O=C1NCCn2nc(-c3ccnc(-c4ccc[nH]4)c3)cc21` [Example 91, dihydrochloride], the IC50 was 2.79 µM. `Cc1cc2cc(-c3cc(-c4cc5n(n4)CCNC5=O)ccn3)ccc2[nH]1` [Example 92]: the IC50 was determined as 2.83 µM. For `O=C1NCCn2nc(-c3ccnc(-c4ccccc4F)c3)cc21` [Example 93], the IC50 came to 2.95 µM. Take `O=C1NCCn2nc(-c3ccnc(-c4ccc(CN5CCOCC5)cc4)c3)cc21` [Example 94, bis(trifluoroacetate)]: the IC50 is 2.99 µM. `CCOC(=O)N1CCN(CCOc2cccc(-c3cc(-c4cc5n(n4)CCNC5=O)ccn3)c2)CC1` [Example 95, trifluoroacetate]: the IC50 worked out at 3.02 µM. Consider `CCOC(=O)c1cc(-c2ccnc(-c3ccc(CO)cc3)c2)nn1CCN` [Example 96, trifluoroacetate], for which the IC50 came to 3.25 µM. In the case of `NCc1cccc(-c2cc(-c3cc4n(n3)CCNC4=O)ccn2)c1` [Example 97, trifluoroacetate] it was 3.25 µM; in that of `O=C1NCCn2nc(-c3ccnc(-c4cccc(OCCN5CCCC5)c4)c3)cc21` [Example 98, 2-{2-[3-(2-pyrrolidin-1-ylethoxy)phenyl]pyridin-4-yl}-6,7-dihydropyrazolo[1,5-a]pyrazin-4(5H)-one], 3.27 µM.

As for `CC(=O)Nc1cccc(-c2cc(-c3cc4n(n3)CCNC4=O)ccn2)c1` [Example 99, N-{3-[4-(4-oxo-4,5,6,7-tetrahydropyrazolo[1,5-a]pyrazin-2-yl)pyridin-2-yl]phenyl}acetamide], the IC50 is 3.31 µM. As to `CN(C)c1ccc(-c2cc(-c3cc4n(n3)CCCNC4=O)ccn2)cc1` [Example 100, 2-{2-[4-(dimethylamino)phenyl]pyridin-4-yl}-5,6,7,8-tetrahydro-4H-pyrazolo[1,5-a][1,4]diazepin-4-one trifluoroacetate], the IC50 amounted to 3.44 µM. On to `O=C1NCCn2nc(-c3ccnc(-c4ccc(C(=O)N5CCOCC5)cc4)c3)cc21` [Example 101, 2-{2-[4-(morpholin-4-ylcarbonyl)phenyl]pyridin-4-yl}-6,7-dihydropyrazolo[1,5-a]pyrazin-4(5H)-one], for which the IC50 amounted to 3.65 µM. `O=C(O)CCc1ccc(-c2cc(-c3cc4n(n3)CCNC4=O)ccn2)cc1` [Example 102, 3-{4-[4-(4-oxo-4,5,6,7-tetrahydropyrazolo[1,5-a]pyrazin-2-yl)pyridin-2-yl]phenyl}propanoic acid]: the IC50 stood at 4.19 µM. `O=C1NCCn2nc(-c3ccnc(-n4cccn4)c3)cc21` [Example 103, 2-[2-(1H-pyrazol-1-yl)pyridin-4-yl]-6,7-dihydropyrazolo[1,5-a]pyrazin-4(5H)-one]: the IC50 was 4.2 µM. In the case of `O=C1NCCn2nc(-c3ccnc(-c4nc5ccccc5s4)c3)cc21` [Example 104, 2-[2-(1,3-benzothiazol-2-yl)pyndin-4-yl]-6,7-dihydropyrazolo[1,5-a]pyrazin-4(5H)-one], the IC50 was 4.27 µM. As for `O=C1NCCCn2nc(-c3ccnc(-n4cnc(-c5ccccc5)c4)c3)cc21` [Example 105, 2-[2-(4-phenyl-1H-imidazol-1-yl)pyridin-4-yl]-5,6,7,8-tetrahydro-4H-pyrazolo[1,5-a][1,4]diazepin-4-one trifluoroacetate], the IC50 came out at 4.31 µM. Consider `O=C1NCCCn2nc(-c3ccnc(-c4cccc(CO)c4)c3)cc21` [Example 106, 2-{2-[3-(hydroxymethyl)phenyl]pyridin-4-yl}-5,6,7,8-tetrahydro-4H-pyrazolo[1,5-a][1,4]diazepin-4-one trifluoroacetate], for which the IC50 amounted to 4.54 µM. Turning to `O=C1NC(CO)Cn2nc(-c3ccnc(C4CNc5ccccc5C4)c3)cc21` (stereo not drawn) [Example 107, 6-(hydroxymethyl)-2-[2-(1,2,3,4-tetrahydroquinolin-3-yl)pyridin-4-yl]-6,7-dihydropyrazolo[1,5-a]pyrazin-4(5H)-one], the IC50 amounted to 4.9 µM. On to `CCOC(=O)c1cc(-c2ccnc(-c3cccc(O)c3)c2)nn1CCN` [Example 108, ethyl 1-(2-aminoethyl)-3-[2-(3-hydroxyphenyl)pyridin-4-yl]-1H-pyrazole-5-carboxylate dihydrochloride], for which the IC50 was determined as 4.98 µM. `CCOC(=O)c1cc(-c2ccnc(-c3cccc(OC)c3)c2)nn1CCN` [Example 110, ethyl 1-(2-aminoethyl)-3-[2-(3-methoxyphenyl)pyridin-4-yl]-1H-pyrazole-5-carboxylate dihydrochloride]: the IC50 was 5.23 µM. Take `O=C1NCCn2nc(-c3ccnc(-c4ccccn4)c3)cc21` [Example 111, 2-(2,2′-bipyridin-4-yl)-6,7-dihydropyrazolo[1,5-a]pyrazin-4(5H)-one]: the IC50 amounted to 5.34 µM. In the case of `CN(C)Cc1ccc(-c2cc(-c3cc4n(n3)CCNC4=O)ccn2)cc1` [Example 112, 2-(2-{4-[(dimethylamino)methyl]phenyl}pyridin-4-yl)-6,7-dihydropyrazolo[1,5-a]pyrazin-4(5H)-one trifluoroacetate], the IC50 turned out to be 5.35 µM. Regarding `O=C1NCCCn2nc(-c3ccnc(-n4ccnc4)c3)cc21` [Example 113, 2-[2-(1H-imidazol-1-yl)pyridin-4-yl]-5,6,7,8-tetrahydro-4H-pyrazolo[1,5-a][1,4]diazepin-4-one hydrochloride], the 50% inhibitory concentration (IC50) is 5.66 µM. On to `O=C1NCCn2nc(-c3ccnc(-c4cccc(CNCCO)c4)c3)cc21` [Example 114, 2-[2-(3-{[(2-hydroxyethyl)amino]methyl}phenyl)pyridin-4-yl]-6,7-dihydropyrazolo[1,5-a]pyrazin-4(5H)-one], for which the IC50 turned out to be 5.78 µM. On to `CC(C)NCc1cccc(-c2cc(-c3cc4n(n3)CCNC4=O)ccn2)c1` [Example 115, 2-(2-{3-[(isopropylamino)methyl]phenyl}pyridin-4-yl)-6,7-dihydropyrazolo[1,5-a]pyrazin-4(5H)-one], for which the half-inhibitory concentration (IC50) worked out at 6.27 µM.

As for `O=C1NCCn2nc(-c3ccnc(-c4cccc(OCCN5CCOCC5)c4)c3)cc21` [Example 116, 2-{2-[3-(2-morpholin-4-ylethoxy)phenyl]pyridin-4-yl}-6,7-dihydropyrazolo[1,5-a]pyrazin-4(5H)-one], the IC50 stood at 6.73 µM.

In the case of `O=C1NCCn2nc(-c3ccnc(-n4cnc(-c5ccccc5)c4)c3)cc21` [Example 117, 2-[2-(4-phenyl-1H-imidazol-1-yl)pyridin-4-yl]-6,7-dihydropyrazolo[1,5-a]pyrazin-4(5H)-one], the IC50 was found to be 7.04 µM. Take `NCCn1nc(-c2ccnc(-c3ccc(CO)cc3)c2)cc1C(=O)NO` [Example 118, 1-(2-aminoethy)-N-hydroxy-3-{2-[4-(hydroxymethyl)phenyl]pyridin-4-yl}-1H-pyrazole-5-carboxamide trifluoroacetate]: the half-maximal inhibitory concentration (IC50) stood at 7.91 µM. Turning to `NCCCn1nc(-c2ccc(O)cc2)cc1C(=O)O` [Example 119, 1-(3-aminopropyl)-3-(4-hydroxyphenyl)-1H-pyrazole-5-carboxylic acid dihydrochloride], the IC50 came out at 8.11 µM. For `O=C1NCCn2nc(-c3ccnc(-c4nc5ccccc5[nH]4)c3)cc21` [Example 120, 2-[2-(1H-benzimidazol-2-yl)pyndin-4-yl]-6,7-dihydropyrazolo[1,5-a]pyrazin-4(5H)-one], the 50% inhibitory concentration (IC50) was determined as 8.92 µM. Regarding `O=C1NCCCn2nc(-c3ccnc(-n4ccnn4)c3)cc21` [Example 121, 2-[2-(1H-1,2,3-triazol-1-yl)pyridin-4-yl]-5,6,7,8-tetrahydro-4H-pyrazolo[1,5-a][1,4]diazepin-4-one hydrochloride], the half-maximal inhibitory concentration (IC50) is 9.05 µM. As for `O=C1NCCCn2nc(-c3ccncc3)cc21` [Example 122, 2-pyridin-4-yl-5,6,7,8-tetrahydro-4H-pyrazolo[1,5-a][1,4]diazepin-4-one], the IC50 was found to be 10.1 µM. As for `O=C1NCCCn2nc(-c3ccnc(-n4cccc4)c3)cc21` [Example 123, 2-[2-(1H-pyrrol-1-yl)pyridin-4-yl]-5,6,7,8-tetrahydro-4H-pyrazolo[1,5-a][1,4]diazepin-4-one trifluoroacetate], the IC50 was 10.6 µM. For the molecule `NCCCn1nc(-c2ccnc(-c3cnc4ccccc4c3)c2)cc1C(N)=O` [Example 124, 1-(3-aminopropyl)-3-(2-quinolin-3-ylpyridin-4-yl)-1H-pyrazole-5-carboxamide dihydrochloride], the half-maximal inhibitory concentration (IC50) was 10.7 µM. Consider `O=C1NCCn2nc(-c3ccnc(-c4cccc(CN5CCOCC5)c4)c3)cc21` [Example 125, 2-{2-[3-(morpholin-4-ylmethyl)phenyl]pyridin-4-yl]-6,7-dihydropyrazolo[1,5-a]pyrazin-4(5H)-one], for which the IC50 came out at 11.4 µM. As to `N#Cc1cc(-c2cc3n(n2)CCNC3=O)ccn1` [Example 126, 4-(4-oxo-4,5,6,7-tetrahydropyrazolo[1,5-a]pyrazin-2-yl)pyridine-2-carbonitrile], the IC50 amounted to 13.8 µM. In the case of `CCCn1nc(-c2ccnc(-n3ccnc3)c2)cc1C(=O)O` [Example 127, 3-[2-(1H-imidazol-1-yl)pyridin-4-yl]-1-propyl-1H-pyrazole-5-carboxylic acid], the IC50 was 14.3 µM.
